The record followed here is ChEMBL document CHEMBL3507680, “University of Dundee, Gates Library screen for HepG2 cell viability”.

This data set in a line: Human HepG2 cell viability assay in 384 well format. Type of data set: toxicity, cell-based. Further details: dose 125 nL, time 70.5 hour; concentration not given beside the values. The following applies: HepG2 cells, read-out: Inhibition.
On to `Cc1ccc(N2CCCC3(COCCN(c4cnccn4)C3)C2)nn1` (stereo not drawn), for which the cytotoxicity at 70.5 h is -0.306%. For the compound `Cc1cc(C(=O)N2CCc3c(CN(C)C(C)C)n[nH]c3C2)[nH]n1`, the cytotoxicity at 70.5 h was 0.919%. With `COCC(=O)N1CCCn2c(CN3CCCC3)nnc2C1` the figure was -4.43%; with `CCNC(=O)N1CCC2(C1)c1ccccc1S(=O)(=O)N2CCOC` (stereo not drawn), 5.14%; with `CCCS(=O)(=O)N1C[C@@H](c2nc(C)no2)C[C@H]2OCC[C@H]21`, -0.391%. For `CC(=O)N1CC[C@@H]2O[C@@H](COCC(=O)N3CCCC3)CC[C@@H]21` the value was 23.9%; for `COc1cc(N2C[C@H](C(=O)N3CCCC3)[C@@H]3CCO[C@@H]3C2)ncn1`, -0.329%; for `CCN1C(=O)CC[C@@H]2[C@H]1CCN2S(=O)(=O)Cc1ccc(C)cc1`, -0.603%.

With `CS(=O)(=O)N1CCOCC2(CCN(C(=O)c3cnccn3)CC2)C1`, the cytotoxicity at 70.5 h stood at 17.6%. For `COCc1nn(C(C)C)c2c1CCN(Cc1ccsc1)C2` the value was -5.82%.

For the compound `CN(C)C(=O)c1nn(C)c2c1CN(Cc1ccoc1)C2`, the cytotoxicity at 70.5 h is -7.04%. Consider `CCN1C(=O)C[C@@H]2[C@@H]1CCN2S(=O)(=O)Cc1ccc(C)cc1`, for which the cytotoxicity at 70.5 h is 1.97%. For the compound `Cc1nc(CO[C@@H]2CN(Cc3ccccn3)[C@@H]3COC[C@@H]32)cs1`, the cytotoxicity at 70.5 h is -7.36%. In the case of `Cc1nc(CO[C@@H]2CN(Cc3ccc(F)cc3)[C@@H]3COC[C@@H]32)cs1`, the cytotoxicity at 70.5 h was -7.17%.

As for `Cc1ccc(CN2Cc3c(cnn3C)C(COCC3CC3)C2)s1` (stereo not drawn), the cytotoxicity at 70.5 h worked out at 35.1%.

In the case of `CN(C)S(=O)(=O)N1CCC2(COCc3cnc(NCC4CC4)nc32)C1` (stereo not drawn), the cytotoxicity at 70.5 h was determined as 29.2%. As to `COCC(=O)N1CCC2(CCN(c3cnn(C)c3)C2=O)C1` (stereo not drawn), the cytotoxicity at 70.5 h stood at 34.5%.

In the case of `CCCS(=O)(=O)N1CCC2(CCN(Cc3cccc(F)c3)C2=O)C1` (stereo not drawn), the cytotoxicity at 70.5 h is 36.3%. Regarding `N#Cc1ccc(OC[C@]23COC[C@H]2CN(Cc2ccccn2)C3)nc1`, the cytotoxicity at 70.5 h was 0.477%. With `Cc1cnc(C(=O)N2CCCC3(CCN(c4cnn(C)c4)C3=O)C2)cn1` (stereo not drawn) the figure was -3.83%; with `Cn1cc(N2CCC3(CCCN(C(=O)c4ccnn4C)C3)C2=O)cn1` (stereo not drawn), -4.7%.

For the compound `c1cc(-c2ccc3c(c2)C2(CC3)CCN(c3nncs3)CC2)ccn1`, the cytotoxicity at 70.5 h was found to be 1.28%. For `O=S(=O)(C1CC1)N1CCC2(COCc3cnc(NCC4CC4)nc32)C1` (stereo not drawn) the value was -6.1%; for `Cc1noc(C)c1CN1C[C@@H]2COC[C@]2(COc2ccc(C#N)cn2)C1`, -2.55%; for `COC[C@@]12CCO[C@@H]1CCN(C(=O)Cc1ccccc1C)C2`, -3.36%. For `COC[C@@]12CCO[C@@H]1CCN(C(=O)CCc1ccccc1Cl)C2` the value was -3.89%; for `Cc1nn(Cn2ccc(C(=O)N3CCC(C)CC3)n2)c(C)c1Cl`, -13.2%. With `CC(C(=O)O)n1nc(C(F)(F)F)c(Cl)c1C1CC1` (stereo not drawn) the figure was 5.37%; with `Cc1ccc(OCc2ccc(C(=O)O)s2)cc1C`, -6.36%; with `CCn1cc(Cn2cc(Cl)c(N)n2)c(C)n1`, -2.35%. For the compound `COc1cc(C(F)(F)F)sc1C(=O)O`, the cytotoxicity at 70.5 h is -6.37%.

Regarding `O=C(O)Cn1nc(C2CC2)c2c(-c3cccs3)ccnc21`, the cytotoxicity at 70.5 h came out at 25.1%. For `CCNC(=O)Cc1n[nH]c(-c2cncc(Br)c2)n1` the value was 32%; for `CCC(=O)Nc1c(C)nn(COc2cccc(F)c2)c1C`, -2.04%; for `CCS(=O)(=O)Nc1cnn(Cc2cccc(Cl)c2)c1`, -10.7%. With `CCn1cc(CN(C)S(=O)(=O)c2ccc(C(C)C)cc2)cn1` the figure was -6.2%; with `CCCNC(=O)c1nn(CC)cc1Cl`, -3.27%. Consider `CSc1ccc(CNc2n[nH]c(C)n2)cc1`, for which the cytotoxicity at 70.5 h was found to be 44.9%. For `Cn1nnc(NCc2ccc(-c3ccc(Br)cc3)o2)n1` the value was -9.29%; for `CCn1nnc(NCc2ccc(-c3ccc(Br)cc3)o2)n1`, -7.12%; for `CCCn1nnc(NCc2cc(Br)cc(Br)c2OC)n1`, -9.35%. For `C=C/C=c1\c(=C/C)oc2c(NCc3ccccc3)ncnc12` the value was 10.6%. With `CCOCCCNc1cc(C)nn2cnnc12` the figure was 7.54%; with `C=C/C=c1\c(=C/C)oc2c(NCc3ccccc3)nc(C)nc12`, 13.2%; with `CN1CCc2c1nc1c(c2N)CCC1`, -7.38%. For `O=C(O)Cn1ccc2c(Cl)cccc21`, the cytotoxicity at 70.5 h is -1.23%.

As for `Cc1ccc(NC(=O)c2n[nH]c(-n3cnnc3)n2)cc1`, the cytotoxicity at 70.5 h was -8.15%. For `Cc1c2ncn(CC(=O)NC(C)C)c(=O)c2nn1C` the value was 3.83%; for `O=c1c2cc3c(cc2nnn1Cc1cccc(F)c1)OCCO3`, -9.5%. For `Cc1ccccc1Cn1nnc2cc3c(cc2c1=O)OCCO3` the value was -9.38%; for `CCn1nc(C)c(NC(=O)C(C)C)c1C`, -2.76%. Consider `Cc1nn(C)c2c(=O)n(Cc3ccccc3)nnc12`, for which the cytotoxicity at 70.5 h was -13.5%. Regarding `Cc1nn(C)c2c(NCc3ccccn3)ncnc12`, the cytotoxicity at 70.5 h was -2.17%. With `Cc1nc(NC2CC2)c2c(n1)c(C)nn2C` the figure was -18.4%; with `Cc1nc(NCc2ccccn2)c2c(n1)c(C)nn2C`, 5.97%; with `COc1ccc(Nc2nc3c(C)nn(C)c3c(=O)n2C)cc1`, 29.7%. For `COc1ccc(C)cc1Nc1nc2c(C)nn(C)c2c(=O)n1C` the value was -5.48%.

As for `COc1ccc(C(C)Nc2nc3c(C)nn(C)c3c(=O)n2C)cc1` (stereo not drawn), the cytotoxicity at 70.5 h is -3.89%. With `CCn1c(NCC2CCCO2)nc2c(C)nn(C)c2c1=O` (stereo not drawn) the figure was -7.98%; with `CCCn1c(N2CCCC2)nc2c(C)nn(C)c2c1=O`, -6.89%. Turning to `CCCn1c(NCCc2ccccc2)nc2c(C)nn(C)c2c1=O`, the cytotoxicity at 70.5 h came to 11.6%. For the compound `Cc1c2ncn(CC(=O)c3ccccc3)c(=O)c2nn1C`, the cytotoxicity at 70.5 h is -3.76%. For the compound `CNc1[nH]nc(N)c1NC(=O)c1ccccc1`, the cytotoxicity at 70.5 h is -17.7%. For `CCn1nc(CNC(C)(C)CO)c(-c2ccccc2)n1`, the cytotoxicity at 70.5 h is -1.62%. For `O=C(Nc1ccccc1)c1n[nH]c(-n2cnnc2)n1` the value was -2.23%; for `CCCN(c1ccccc1C(=O)O)S(=O)(=O)c1ccc2ccccc2c1`, -6.16%; for `CS(=O)(=O)Nc1ccn(Cc2cccc(F)c2)n1`, -6.83%. For `Cc1nc(CN2C(=O)COC3(CCN(CC4CC4)CC3)C2C)cs1` (stereo not drawn) the value was 2.37%; for `Cc1cc(C(=O)N2CCC3(CC2)CC(c2cccnc2)C(=O)N3)no1` (stereo not drawn), 1.95%; for `CCN(CC)Cc1cn2c(n1)CN(C(=O)Cc1ccsc1)CC2`, -5.15%.

Regarding `Cc1ccc(N2CCCC3(COCCN(c4ncccn4)C3)C2)nn1` (stereo not drawn), the cytotoxicity at 70.5 h was 4.86%. With `O=C(c1cnc2ccccc2c1)N1CCC2(CCN2c2ncccn2)C1` (stereo not drawn), the cytotoxicity at 70.5 h turned out to be 2.76%.

As for `Cc1nc(CN2C(=O)COC3(CCN(C)CC3)C2C)cs1` (stereo not drawn), the cytotoxicity at 70.5 h was 4.23%. With `O=C(c1ccccc1)N1CCC2(CCCN2c2ncccn2)CC1` the figure was 3.93%; with `Cc1cccc(C(=O)N2C[C@@H]3COC[C@@H](CC(=O)N4CCCC4)[C@@H]3C2)n1`, 4.3%; with `O=C1COC2(CCN(Cc3nccs3)CC2)CN1c1ccccc1`, 5.28%. As to `Cn1cccc1C(=O)N1CC[C@@H]2[C@@H]1CC(=O)N2CCN1CCOCC1`, the cytotoxicity at 70.5 h is -4.61%. For `CN(C)C(=O)c1nn(C)c2c1CN(Cc1ccc(F)cc1)C2`, the cytotoxicity at 70.5 h was -6.32%. For `CS(=O)(=O)NCc1cnc2n1CCN(Cc1ccoc1)CC2` the value was -9.11%; for `Cc1csc(CN2CC[C@H]3C[C@H](c4nc(C)no4)O[C@@H]3C2)n1`, -10.4%; for `Cc1nc(CO[C@@H]2CN(Cc3nccs3)[C@@H]3COC[C@@H]32)cs1`, -6.11%. For `O=C1C[C@H]2[C@@H](CCN2C(=O)c2ccoc2)N1CCN1CCOCC1` the value was -7.58%; for `COCc1nn(C(C)C)c2c1CCN(Cc1ccoc1)C2`, -6.52%; for `CS(=O)(=O)N1CCC2(CCN(C(=O)c3cccnc3)CC2)C1`, -7.54%. On to `COCc1nn(C(C)C)c2c1CCN(Cc1nccs1)C2`, for which the cytotoxicity at 70.5 h turned out to be 12.2%. With `COCCN1CCC(c2nc3ccc(-c4ccccc4)cn3n2)CC1` the figure was 1.72%; with `CN1CCC(c2nc3ccc(-c4ccccc4)cn3n2)CC1`, -3.45%; with `O=C(N1CCCC1)N1CCC[C@]2(C[C@@H](Oc3ncccc3F)CO2)C1`, -4.8%. With `O=C(c1ccnnc1)N1CC[C@]2(C[C@H](Oc3ncccc3F)CO2)C1` the figure was -5.53%; with `Cn1cc(CN2Cc3c(cnn3C)C(COCC3CC3)C2)cn1` (stereo not drawn), 26%; with `c1cc(CN2CCc3ncc(CN4CCOCC4)n3CC2)cs1`, 16.8%. For `O=C(c1cscn1)N1CCC2(CN(Cc3ccncc3)C2)C1` the value was -9.93%; for `Cc1nnc(N2CCCC3(CN(Cc4nccs4)CCO3)C2)o1` (stereo not drawn), 34.9%. Turning to `c1cc(-c2ccc3nc(C4CCN(CC5CC5)CC4)nn3c2)ccn1`, the cytotoxicity at 70.5 h turned out to be 3.64%. Consider `c1cncc(O[C@H]2CC[C@H]3[C@H]2OCCN3C2CCCC2)c1`, for which the cytotoxicity at 70.5 h was -1.6%. For `O=C(Cc1ccccn1)N1CC[C@]2(C[C@@H](Oc3ncccc3F)CO2)C1` the value was 2.46%; for `COCCN1C[C@@H]2[C@@H](OC)CCN(Cc3cccs3)[C@@H]2C1`, -1.71%; for `Cn1cc(CN2CCC3(CCCN3Cc3cccnc3)CC2)cn1`, -3.83%.
